# Test: Human HepG2 cell viability assay in 384 well format
# Format: toxicity, cell-based
# Set-up: dose 125 nL, time 70.5 hour; cytotoxicity at 70.5 h: concentration not given beside the values
# Conditions: HepG2 cells, read-out: Inhibition
row,Structure (SMILES),cytotoxicity at 70.5 h
1,Cc1cc(C(=O)NCc2ccc(N3CCCC(C(N)=O)C3)cc2)no1 (stereo unspecified),-12.6%
2,O=C(CN1CCOC(c2ccccc2C(F)(F)F)C1)NC1CC1 (stereo unspecified),-7.54%
3,Cc1cc(C(=O)N(C)C2CCS(=O)(=O)C2)c2ccc(F)cc2n1 (stereo unspecified),10.8%
4,CN(CC(=O)N1CCCC1c1cnn(C)c1)c1ccc(Cl)cn1 (stereo unspecified),3.73%
5,CCn1ccc(-c2nnc(SCC(=O)NCC(C)C)n2CC)n1,-10.3%
6,CN(C(=O)c1ccnn1C)[C@@H]1CCC[C@@H](Oc2ccccc2)[C@@H]1O,-3.62%
7,CC(C)NC(=O)N1CCCCCC1C1CCN(c2ncccn2)CC1 (stereo unspecified),19.7%
8,CC(C)=CCN1CCN(C(=O)c2cc(C(C)C)on2)[C@H]2CS(=O)(=O)C[C@H]21,-8.01%
9,CC1(C)[C@H]2CC=C(CN3CCCn4nc(CNS(C)(=O)=O)cc4C3)[C@@H]1C2,-8.88%
10,Cc1ccc(CNC(=O)c2c[nH]nc2NC(=O)COCC2CC2)cc1,-3.76%
11,c1cnc2[nH]c(C3CCNCC3)c(CN3CCOCC3)c2c1,-1.47%
12,COc1nsc2nc(C3CCCN3c3ncccn3)ccc12 (stereo unspecified),-7.28%
13,O=C(c1ccnc(C2CCNCC2)c1)N1CCCC1,7.01%
14,Cc1cc(C)n(C2CCN(C(=O)c3cn4ccsc4n3)C2)n1 (stereo unspecified),-7.56%
15,O=C(Cc1ccncc1)N1C[C@@H]2CC[C@H](C1)N(Cc1ccccc1)C2=O,-3.45%
16,CS(=O)(=O)CCCNC(=O)NC1CC(c2cccc(Cl)c2)C1 (stereo unspecified),-3.19%
17,O=C(O)CCNC(=O)N1CCc2c([nH]c3ccc(Cl)cc23)C1,-6.59%
18,c1cncc(CN2Cc3nccn3CC(Cn3cncn3)C2)c1 (stereo unspecified),0.12%
19,CCCc1nnc(N2CCC(N3CCCC3)CC2)o1,26%
20,Cc1ccc(N2CCCC(N(C)Cc3nc(C)c(C)o3)C2)nn1 (stereo unspecified),-11.5%
21,N#Cc1c(N2CCCN(C3CCOCC3)CC2)nc2ccccn12,-2.26%

row,Structure (SMILES),cytotoxicity at 70.5 h
1,Cc1csc(CN2CC[C@@](O)(C3CCOCC3)[C@H](C)C2)n1,-5.11%
2,CC(C)(C)c1n[nH]c(C2CN(C(=O)c3cnc[nH]3)CCO2)n1 (stereo unspecified),-7.66%
3,O=S(=O)(CCc1ccccc1)Nc1cc(Cl)ccn1,0.152%
4,CNc1cc(C2CN(Cc3coc(C)n3)CCO2)nc(C)n1 (stereo unspecified),-8.75%
5,CC(=O)N1CC(C(=O)N2CCCC(Cn3ccnc3C)C2)C1 (stereo unspecified),-9.41%
6,Cc1cc(C(=O)N2C[C@@H](C(=O)O)[C@H](c3ccccc3C)C2)c(C)o1,13.2%
7,CNC(=O)c1cccc(CN2CCC(N(C)Cc3noc(C)n3)C2)c1 (stereo unspecified),-4.76%
8,c1ccc2c(c1)cnn2CCCNC1CCOC2(CCOCC2)C1 (stereo unspecified),-13.6%
9,CN(CCc1ncnn1C1Cc2ccccc2C1)C1CCS(=O)(=O)C1 (stereo unspecified),-11.8%
10,CN(C)c1ccc(CC2CCN(c3cnccn3)C2)nn1 (stereo unspecified),-8.95%
11,Cc1cc(C(F)(F)F)nn1C(C)C(=O)NN1CCOCC1 (stereo unspecified),-7.56%
12,Cc1ccc2nc(C)cc(C(=O)NCc3csc(N(C)C)n3)c2c1,-2.75%
13,N#Cc1c(CN2CCCC2Cn2cncn2)cn2ccccc12 (stereo unspecified),-12.3%
14,CN1CC(C(=O)NCCc2ccc3c(c2)OCO3)CC1=O (stereo unspecified),-8.14%
15,Cc1sc(CN)nc1-c1ccccc1,-3.17%
16,Cc1cccc(N2Cc3nc(=O)n(Cc4cccc(F)c4)n3C2=O)c1,-18%
17,COCCN1CCC(NCc2cc(F)ccc2F)C1 (stereo unspecified),22.5%
18,CC(c1ccncn1)N(C)S(=O)(=O)NCc1ccccc1 (stereo unspecified),47.6%
19,O=C(NCC1CC1)[C@H]1CN(Cc2nccs2)C[C@H]2OCC[C@@H]12,-9.38%
20,Cc1cnn(CCNCc2nnc(-c3occc3C)o2)c1,-5.91%
21,O=C1[C@H]2CN(Cc3ccccc3)C[C@H]2CN1c1cncnc1,-2.62%

row,Structure (SMILES),cytotoxicity at 70.5 h
1,CN1CCCN(C(=O)NCc2cc(Br)cs2)CC1,-1.99%
2,Cc1cc(-c2cnc(C)nc2CN(C)C(=O)c2ccccn2)on1,-3.87%
3,CS(=O)(=O)N1C[C@@H]2CC[C@H](C1)N(C(=O)Cn1ccc3ccccc31)C2,-4.09%
4,CN(C)C(=O)CN1CCCCC1c1nc(N)ncc1-c1ccccc1 (stereo unspecified),-17.6%
5,O=C(CS(=O)(=O)c1cccc[n+]1[O-])NC1CCCc2ccccc21 (stereo unspecified),1.9%
6,O=C(O)C1(n2ccc(-c3ccco3)n2)CCN(Cc2ccsc2)CC1,-1.95%
7,CCC(O)CNC(=O)c1coc(COc2ccc3sc(C)nc3c2)n1 (stereo unspecified),12.2%
8,CN1CCC(N(C)CCC(=O)N2CCC(Oc3ccc(Cl)cc3)CC2)C1 (stereo unspecified),-5.97%
9,O=C1COc2ccc(C(=O)NS(=O)(=O)c3ccccc3F)cc2N1,-8.64%
10,COC(=O)CNC(=O)c1scnc1C,-1.16%
11,O=C(c1ccnnc1)N1C[C@H]2CN(Cc3cccc(F)c3)C(=O)[C@H]2C1,-13.7%
12,COc1cc(CNC(C)Cn2cccn2)cc2c1OCO2 (stereo unspecified),-9.7%
13,CN(C)[C@@H]1CN(Cc2ccco2)C[C@@H]2CCCO[C@@H]21,-8.79%
14,Fc1cccc(CN2CCC(c3n[nH]c4ncccc34)CC2)c1F,-9.75%
15,Cc1cccc(NCCOc2cccc(C#N)c2)c1C(N)=O,16.4%
16,N#Cc1ccnc(N2CCN(CC(O)c3ccccc3Cl)CC2)c1 (stereo unspecified),-0.0236%
17,CCc1ncc2c(n1)CN(Cc1nc(-c3ccsc3)oc1C)CC2,1.83%
18,Cc1cc(C(=O)N2CC[C@@]3(O)CCN(S(C)(=O)=O)C[C@H]3C2)c(C)n1C,18.6%
19,CNC(=O)CCc1cc(C)nc(C2CCCN2)n1 (stereo unspecified),-12.5%
20,CN(Cc1nc(Cc2cccc(C(F)(F)F)c2)no1)C(C1CC1)C1CC1,-9.87%
21,CS(=O)(=O)N1CCCCC12CCCN(Cc1nccs1)C2 (stereo unspecified),11.6%

row,Structure (SMILES),cytotoxicity at 70.5 h
1,Cc1cnn(C2CN(CC(=O)NCc3ccccn3)C2)c1,16.5%
2,COc1ccccc1-n1nc(-c2ccco2)n(CC(N)=O)c1=O,-7.68%
3,CCOCC1c2c(ncn2C(C)C)CCN1C(C)C (stereo unspecified),-7.26%
4,Cc1ccc(CN2CCC3(CC2)NC(=O)CC3c2ccccc2)s1 (stereo unspecified),-6.55%
5,O=C(CCc1ccco1)N1CCC(Oc2ccccc2)(C(=O)O)CC1,2.91%
6,Cc1nc(=O)c2ccccc2n1C1=CCN(CC(=O)NC(C)C)CC1,-1.95%
7,CC(=O)N(Cc1ncc(C(C)C)o1)C1CCN(CCn2cncn2)C1 (stereo unspecified),-3.83%
8,C[C@H]1C(=O)NC[C@H]2CN(Cc3ccccc3)C[C@H]21,-2.5%
9,CC(C)CSCCN1CCN(S(C)(=O)=O)CC1,0.763%
10,Cc1ccc(-n2cc(C(=O)N3CCCC(n4cccn4)C3)nn2)cc1 (stereo unspecified),-5.27%
11,c1cnnc(N2CCCC2CNCc2cccs2)c1 (stereo unspecified),-1.72%
12,Nc1ccc(C(=O)N2CCCC(C(=O)CCc3ccccc3)C2)cn1 (stereo unspecified),-20%
13,COc1ccc(CCn2cnc(C#N)n2)cc1,-12.6%
14,COC(=O)NCC(=O)NCc1nn(-c2ccccc2)c2c1CCC2,-4.34%
15,Cc1cnc(C(=O)N2CCOCC2c2ccccc2)cn1 (stereo unspecified),-10.2%
16,CN(C)CCN1CCCC12CCN(C(=O)c1ccncc1)CC2,-7.81%
17,CCc1cnccc1C(=O)NC1CCN(C(=O)OC)CC1,24.5%
18,Cc1cscc1C(=O)Nc1cc(CSCCO)ccn1,-3.95%

# Source: ChEMBL document CHEMBL3507680, “University of Dundee, Gates Library screen for HepG2 cell viability”
